Drawing on patent publication US10259808B2 (Genentech, Inc., priority 2015, dated 2019), this text covers IC50 for 29 molecules.

What is called IC50 is the concentration that gives 50% inhibition. A high value points to lower potency.

The target in one experiment is T1, RORc ligand binding domain (Homo sapiens, UniProt P51449).
T1 sequence (P51449 269-508 limits assumed): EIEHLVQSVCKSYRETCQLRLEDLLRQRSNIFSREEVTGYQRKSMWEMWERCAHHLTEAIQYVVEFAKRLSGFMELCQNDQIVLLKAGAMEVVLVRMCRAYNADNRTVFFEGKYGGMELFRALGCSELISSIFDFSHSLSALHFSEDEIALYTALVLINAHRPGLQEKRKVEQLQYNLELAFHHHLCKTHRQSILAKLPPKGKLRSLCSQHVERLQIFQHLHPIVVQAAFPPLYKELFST
Nature of the experiment: In vitro RORc ligand binding assay (25-[3H]hydroxycholesterol displacement).
Settings: not given
`C[C@H]1CC[C@H](c2ccccc2)S(=O)(=O)N1Cc1ccc(C2(Cn3cnnc3)CCOCC2)cc1F` [Example 40, (3S,6R)-2-[[2-fluoro-4-[4-(1,2,4-triazol-4-ylmethyl)tetrahydropyran-4-yl]phenyl]methyl]-3-methyl-6-phenyl-thiazinane 1,1-dioxide]: the IC50 is 118 nM.

On to `C[C@H]1CC[C@H](c2ccccc2)S(=O)(=O)N1Cc1cc(F)c([C@]2(c3c[nH]c(=O)o3)C[C@](C)(O)C2)cc1F` [Example 158, 5-[1-[2,5-difluoro-4-[[(3S,6R)-3-methyl-1,1-dioxo-6-phenyl-thiazinan-2-yl]methyl]phenyl]-3-hydroxy-3-methyl-cyclobutyl]-3H-oxazol-2-one], for which the IC50 is 3.2 nM.

`Cc1cc(CNC2(c3cc(F)c(CN4[C@@H](C)CC[C@H](c5ccccc5)S4(=O)=O)cc3F)COC2)no1` [Example 95, 3-[2,5-difluoro-4-[[(3S,6R)-3-methyl-1,1-dioxo-6-phenyl-thiazinan-2-yl]methyl]phenyl]-N-[(5-methylisoxazol-3-yl)methyl]oxetan-3-amine] returned an IC50 of 20.6 nM. Against the preceding molecule, the IC50 is about 6.4-fold higher.

Take `C[C@H]1CC[C@H](c2ccccc2)S(=O)(=O)N1Cc1cc(F)c(C2(c3nnc[nH]3)CC(=O)C2)cc1F` [Example 113, 3-[2,5-difluoro-4-[[(3S,6R)-3-methyl-1,1-dioxo-6-phenyl-thiazinan-2-yl]methyl]phenyl]-3-(4H-1,2,4-triazol-3-yl)cyclobutanone]: the IC50 stood at 8.1 nM. Against the preceding molecule, the IC50 is about 2.5-fold lower.

`C[C@H]1CC[C@H](c2ccccc2)S(=O)(=O)N1Cc1ccc(C2(n3cn[nH]c3=O)CCOCC2)cc1F` [Example 70, 4-[4-[3-fluoro-4-[[(3S,6R)-3-methyl-1,1-dioxo-6-phenyl-thiazinan-2-yl]methyl]phenyl]tetrahydropyran-4-yl]-1H-1,2,4-triazol-5-one] returned a concentration for half-maximal inhibition (IC50) of 113 nM.

With `C[C@H]1CC[C@H](c2ccccc2)S(=O)(=O)N1Cc1cc(F)c([C@]2(c3n[nH]c(=O)o3)C[C@](O)(C3CC3)C2)cc1F` [Example 141, cis 5-[3-cyclopropyl-1-[2,5-difluoro-4-[[(3S,6R)-3-methyl-1,1-dioxo-6-phenyl-thiazinan-2-yl]methyl]phenyl]-3-hydroxy-cyclobutyl]-3H-1,3,4-oxadiazol-2-one], the IC50 is 9.2 nM.

Turning to `C[C@H]1CC[C@H](c2ccccc2)S(=O)(=O)N1Cc1ccc(C2(NCc3cnc[nH]3)CCOCC2)cc1F` [Example 62, 4-[3-fluoro-4-[[(3S,6R)-3-methyl-1,1-dioxo-6-phenyl-thiazinan-2-yl]methyl]phenyl]-N-(1H-imidazol-5-ylmethyl)tetrahydropyran-4-amine], the IC50 was 20.5 nM.

For the molecule `C[C@H]1CC[C@H](c2ccccc2)S(=O)(=O)N1Cc1ccc(C2(N(C)Cc3nnc[nH]3)CCOCC2)cc1F` [Example 79, 4-[3-fluoro-4-[[(3S,6R)-3-methyl-1,1-dioxo-6-phenyl-thiazinan-2-yl]methyl]phenyl]-N-methyl-N-(4H-1,2,4-triazol-3-ylmethyl)tetrahydropyran-4-amine], the 50% inhibitory concentration (IC50) turned out to be 77.1 nM.

Regarding `C[C@H]1CC[C@H](c2ccccc2)S(=O)(=O)N1Cc1cc(F)c([C@]2(c3nn(CC#N)c(=O)o3)C[C@](C)(O)C2)cc1F` (racemic) [Example 174, 2-[5-[1-[2,5-difluoro-4-[[rac-(3S,6R)-3-methyl-1,1-dioxo-6-phenyl-thiazinan-2-yl]methyl]phenyl]-3-hydroxy-3-methyl-cyclobutyl]-2-oxo-1,3,4-oxadiazol-3-yl]acetonitrile], the IC50 is 23 nM.

In turn, `C[C@H]1CC[C@H](c2ccccc2)S(=O)(=O)N1Cc1cc(F)c(C2(NCc3ccnn3C)COC2)cc1F` [Example 137, 3-[2,5-difluoro-4-[[(3S,6R)-3-methyl-1,1-dioxo-6-phenyl-thiazinan-2-yl]methyl]phenyl]-N-[(2-methylpyrazol-3-yl)methyl]oxetan-3-amine] yielded a concentration for half-maximal inhibition (IC50) of 89.4 nM.

Molecule `C[C@H]1CC[C@H](c2ccccc2)S(=O)(=O)N1Cc1ccc(C2(N3C=NC(=O)/C3=C\O)CCOCC2)cc1F` [Example 69, (5E)-1-[4-[3-fluoro-4-[[(3S,6R)-3-methyl-1,1-dioxo-6-phenyl-thiazinan-2-yl]methyl]phenyl]tetrahydropyran-4-yl]-5-(hydroxymethylene)imidazol-4-one] had an IC50 of 83.3 nM. This IC50 and that of the molecule before are within 1.5-fold of each other.

`C[C@H]1CC[C@H](c2ccccc2)S(=O)(=O)N1Cc1ccc(C2(C(=O)NC3COC3)CCOCC2)cc1F` [Example 1] registered an IC50 of 110 nM.

The molecule `C[C@H]1CC[C@H](c2ccccc2)S(=O)(=O)N1Cc1ccc(C2(c3noc(=O)[nH]3)CCOCC2)cc1F` [Example 30, 3-[4-[3-fluoro-4-[[(3S,6R)-3-methyl-1,1-dioxo-6-phenyl-thiazinan-2-yl]methyl]phenyl]tetrahydropyran-4-yl]-4H-1,2,4-oxadiazol-5-one] had an IC50 of 245 nM. This IC50 is about 2.2-fold higher than that of the molecule before.

Molecule `Cc1nnc(COCC2(c3ccc(CN4[C@@H](C)CC[C@H](c5ccccc5)S4(=O)=O)c(F)c3)CCOCC2)o1` displayed a concentration for half-maximal inhibition (IC50) of 90.3 nM.

As to `C[C@H]1CC[C@H](c2ccccc2)S(=O)(=O)N1Cc1cc(F)c([C@]2(COc3cnccn3)C[C@](C)(O)C2)cc1F` (racemic) [Example 180, 3-[2,5-difluoro-4-[[rac-(3S,6R)-3-methyl-1,1-dioxo-6-phenyl-thiazinan-2-yl]methyl]phenyl]-1-methyl-3-(pyrazin-2-yloxymethyl)cyclobutanol], the IC50 was determined as 8 nM.

Regarding `C[C@H]1CC[C@H](c2ccccc2)S(=O)(=O)N1Cc1cc(F)c(C2(NC(=O)Cc3ccon3)COC2)cc1F` [Example 94, N-[3-[2,5-difluoro-4-[[(3S,6R)-3-methyl-1,1-dioxo-6-phenyl-thiazinan-2-yl]methyl]phenyl]oxetan-3-yl]-2-isoxazol-3-yl-acetamide], the IC50 amounted to 17.9 nM. This IC50 is about 2.2-fold higher than that of the molecule before.

As to `C[C@H]1CC[C@H](c2ccccc2)S(=O)(=O)N1Cc1cc(F)c(C2(Nc3cnccn3)COC2)cc1F` [Example 105, N-[3-[2,5-difluoro-4-[[(3S,6R)-3-methyl-1,1-dioxo-6-phenyl-thiazinan-2-yl]methyl]phenyl]oxetan-3-yl]pyrazin-2-amine], the IC50 came to 2.2 nM.

`C[C@H]1CC[C@H](c2ccccc2)S(=O)(=O)N1Cc1ccc(C2(NCc3cocn3)CCOCC2)cc1F` [Example 65, 4-[3-fluoro-4-[[(3S,6R)-3-methyl-1,1-dioxo-6-phenyl-thiazinan-2-yl]methyl]phenyl]-N-(oxazol-4-ylmethyl)tetrahydropyran-4-amine] displayed a 50% inhibitory concentration (IC50) of 3.6 nM.

In turn, `C[C@H]1CC[C@H](c2ccccc2)S(=O)(=O)N1Cc1ccc(C2(c3nnc(CO)o3)CCOCC2)cc1F` [Example 44, [5-[4-[3-fluoro-4-[[(3S,6R)-3-methyl-1,1-dioxo-6-phenyl-thiazinan-2-yl]methyl]phenyl]tetrahydropyran-4-yl]-1,3,4-oxadiazol-2-yl]methanol] yielded a half-maximal inhibitory concentration (IC50) of 102 nM.

`C[C@H]1CC[C@H](c2ccccc2)S(=O)(=O)N1Cc1cc(F)c(C2(C(=O)N3CCOCC3)CCOCC2)cc1F` [Example 37, [4-[2,5-difluoro-4-[[(3S,6R)-3-methyl-1,1-dioxo-6-phenyl-thiazinan-2-yl]methyl]phenyl]tetrahydropyran-4-yl]-morpholino-methanone] returned an IC50 of 106 nM.

`CCn1nccc1NC(=O)C1(c2ccc(CN3[C@@H](C)CC[C@H](c4ccccc4)S3(=O)=O)c(F)c2)CCOCC1` [Example 13] showed a concentration for half-maximal inhibition (IC50) of 63.2 nM.

For `C[C@H]1CC[C@H](c2ccccc2)S(=O)(=O)N1Cc1cc(F)c(C2(c3ncn(CCO)n3)CCOCC2)cc1F` [Example 54, 2-[3-[4-[2,5-difluoro-4-[[(3S,6R)-3-methyl-1,1-dioxo-6-phenyl-thiazinan-2-yl]methyl]phenyl]tetrahydropyran-4-yl]-1,2,4-triazol-1-yl]ethanol], the IC50 came to 57 nM. The IC50 values of the last two molecules are within 1.5-fold of each other.

The molecule `C[C@H]1CC[C@H](c2ccccc2)S(=O)(=O)N1Cc1ccc(C2(C(=O)NC3CCOCC3)CCOCC2)cc1F` showed a half-maximal inhibitory concentration (IC50) of 171 nM.

`C[C@H]1CC[C@H](c2ccccc2)S(=O)(=O)N1Cc1cc(F)c(C2(NCc3cc[nH]n3)COC2)cc1F` [Example 84, 3-[2,5-difluoro-4-[[(3S,6R)-3-methyl-1,1-dioxo-6-phenyl-thiazinan-2-yl]methyl]phenyl]-N-(1H-pyrazol-3-ylmethyl)oxetan-3-amine] registered an IC50 of 5.7 nM.

In turn, `C[C@H]1CC[C@H](c2ccccc2)S(=O)(=O)N1Cc1ccc(C2(NCc3cc[nH]c(=O)c3)CCOCC2)cc1F` [Example 72, 4-[[[4-[3-fluoro-4-[[(3S,6R)-3-methyl-1,1-dioxo-6-phenyl-thiazinan-2-yl]methyl]phenyl]tetrahydropyran-4-yl]amino]methyl]-1H-pyridin-2-one] yielded a half-inhibitory concentration (IC50) of 10.6 nM. Compared with the last molecule, the IC50 is about 1.9-fold higher.

Molecule `C[C@H]1CC[C@H](c2ccccc2)S(=O)(=O)N1Cc1ccc(C2(C(=O)NCc3cn[nH]c3)CCOCC2)cc1F` [Example 17, 4-[3-fluoro-4-[[(3S,6R)-3-methyl-1,1-dioxo-6-phenyl-thiazinan-2-yl]methyl]phenyl]-N-(1H-pyrazol-4-ylmethyl)tetrahydropyran-4-carboxamide] gave a concentration for half-maximal inhibition (IC50) of 32.5 nM.

As for `C[C@H]1CC[C@H](c2ccccc2)S(=O)(=O)N1Cc1ccc(C2(c3nnco3)CCOCC2)cc1F` [Example 42, (3S,6R)-2-[[2-fluoro-4-[4-(1,3,4-oxadiazol-2-yl)tetrahydropyran-4-yl]phenyl]methyl]-3-methyl-6-phenyl-thiazinane 1,1-dioxide], the half-maximal inhibitory concentration (IC50) came to 54.6 nM.

On to `C[C@H]1CC[C@H](c2ccccc2)S(=O)(=O)N1Cc1cc(F)c(C2(N3C[C@@H](CO)OC3=O)CCOCC2)cc1F` [Example 99, (5S)-3-[4-[2,5-difluoro-4-[[(3S,6R)-3-methyl-1,1-dioxo-6-phenyl-thiazinan-2-yl]methyl]phenyl]tetrahydropyran-4-yl]-5-(hydroxymethyl)oxazolidin-2-one], for which the IC50 is 58.7 nM.

The experiment is the same for the next values; noted with them: IC50 values for RORc.
For `C[C@H]1CC[C@H](c2ccccc2)S(=O)(=O)N1Cc1cc(F)c([C@]2(c3nn(C)c(=O)o3)C[C@](C)(O)C2)cc1F` (racemic) [Example 167], the IC50 came to 19.2 nM.
